Reference: patent publication US20230183228A1, “SUBSTITUTED PYRAZOLYL COMPOUNDS AND METHODS OF USE THEREOF” (Chinook Therapeutics Canada, Inc., priority 2020, published 2023)

Assays:
[1] = target: T1, human recombinant C-terminal His-tagged LDHA (Homo sapiens, UniProt P00338); assay: Human LDHA enzyme assay, human serum albumin (HSA) shift; assay type: biochemical; details: final concentration 10% HSA
T1 construct: His (C)
Method: (§1) Compounds were dissolved in DMSO and preincubated with human recombinant C-terminal His-tagged LDHA (0.070 μg/mL) for 10 min at room temperature in assay buffer consisting 50 mM Tris, pH 7.5 and 100 mM NaCl in black walled, clear bottom, non-binding 96-well plates. Equal volumes of substrate solution containing 100 μM of pyruvate and 100 μM of NADH in assay buffer was added to each well (final concentration 0.035 μg/mL enzyme, 50 μM pyruvate, 50 μM NADH, and 1% DMSO). For human serum albumin (HSA) shift assay, the compounds were preincubated with the enzyme in assay buffer containing 20% HSA before substrate addition (final concentration 10% HSA). The reaction was monitored at 340 nm on a plate reader (Molecular Devices) in kinetic mode for 15 min. The rate of the reaction was determined by plotting absorbance vs time.

[2] = Liver-targeted tissue distribution profile study in rats; assay type: in vivo, Sprague Dawley rats; details: rat, single 10 mg/kg PO
Method: Plasma and liver (target organ) concentrations of test compounds were determined in rats following a single per os (PO) administration of the test compounds. Male Sprague Dawley rats (6-8 weeks of age, Charles River Labs) were fasted overnight and a single dose of test compounds (10 mg/kg; as a suspension in 0.5% methyl cellulose) was administered by PO gavage. Rats were then sacrificed at 4 and 24 h after administration of the test compounds, and plasma and liver tissue samples were collected. Liver tissue samples were homogenized in 5 volumes of water:acetonitrile (50/50; v/v) mixture using a bead mill homogenizer. Plasma and liver homogenate samples were processed by protein precipitation using acetonitrile and the concentrations of the test compounds were determined by liquid chromatography-tandem mass spectrometry (SciEx triple quad 5500+ with Exion UPLC).
Liver and plasma exposures at the 4 h and 24 h timepoints for the various compounds are described in Table 5 below. Measured compound concentrations are as follows: ++++>10 μM; 10 μM≥+++>5 μM; 5 μM≥++>1 μM; 1 μM≥+>0.25 μM; and 0.25 μM≥−.

[3] = tested on: fresh primary mouse hepatocytes; assay: Primary mouse hepatocyte assay (lactate production); assay type: cell-based
Method: Compounds were evaluated in an ex vivo assay consisting of fresh primary mouse hepatocytes. Hepatocytes were isolated from wild type mice (C57BL/6NCrl from Charles River Labs) using a two-step collagenase perfusion technique which involves a sequential perfusion of anesthetized mice with Hanks' balanced salt solution and collagenase. Following isolation, viable wild type hepatocytes (0.1 M cells/well) were incubated with test compound in presence of pyruvate and compound potency was evaluated by measuring the lactate produced by the cells using liquid chromatography coupled to mass spectrometry. Chromatographic separation was achieved on an XDB-C18 4.6×50 mm column (Agilent, Cat #927975-902) at a flow rate of 1 mL/min Mobile phase A consisted of 0.1% formic acid in water and mobile phase B consisted of acetonitrile. A gradient program was initiated starting at 5% B which was held for 1 minutes, then ramped from 5% to 95% B over 1 minute. After holding at 95% B for 1 minute, the program changed back to 5% B. The column was equilibrated with 5% B for […] before the next injection. The mass spectrometer was operated in negative mode with electrospray ionization. The following transition along with their collision energy (CE) were used: 89→43 (CE: −16 V) for lactate and 92→45 (CE: −16 V) for ^13C3-Lactate (internal standard).

[4] = target: T1, human recombinant C-terminal His-tagged LDHA; assay: Human LDHA enzyme assay; assay type: biochemical; details: 50 μM pyruvate, 50 μM NADH, no HSA
Method: as §1

[5] = Run at 0.4M cells/well concentration of hepatocytes

Row | Compound | IC50 [1] [nM] | Measured Compound Concentrations Liver - 4 h [2] | Measured Compound Concentrations Liver - 24 h [2] | Measured Compound Concentrations Plasma - 4 h [2] | Measured Compound Concentrations Plasma - 24 h [2] | IC50 [4] [nM] | IC50 ([3]; 0.1 M cells/well) [nM] | IC50 [3, 5] [nM]
1 | NS(=O)(=O)c1ccc(Cc2c(-c3cc(F)cc(F)c3)nn(-c3nc(C(=O)O)cs3)c2CC2CC2)cc1F [Example 15, 2-(5-(cyclopropylmethyl)-3-(3,5-difluorophenyl)-4-(3-fluoro-4-sulfamoylbenzyl)-1H-pyrazol-1-yl)thiazole-4-carboxylic acid] | 1 to 10 | ++++ (++++>10 μM) | + (1 μM≥+>0.25 μM) | − (0.25 μM≥−) | − (0.25 μM≥−) | < 1 | – | < 100
2 | NS(=O)(=O)c1ccc(Cc2c(-c3cccc(C(F)(F)F)c3)nn(-c3nc(C(=O)O)cs3)c2CC2CC2)cc1F [Example 18, 2-(5-(cyclopropylmethyl)-4-(3-fluoro-4-sulfamoylbenzyl)-3-(3-(trifluoromethyl)phenyl)-1H-pyrazol-1-yl)thiazole-4-carboxylic acid] | 1 to 10 | +++ (10 μM≥+++>5 μM) | − (0.25 μM≥−) | − (0.25 μM≥−) | − (0.25 μM≥−) | < 1 | < 100 | –
3 | NS(=O)(=O)c1ccc(Cc2c(-c3ccc(F)c(Cl)c3)nn(-c3nc(C(=O)O)cs3)c2CC2CC2)cc1F [Example 8, 2-(3-(3-Chloro-4-fluorophenyl)-5-(cyclopropylmethyl)-4-(3-fluoro-4-sulfamoylbenzyl)-1H-pyrazol-1-yl)thiazole-4-carboxylic acid] | 1 to 10 | +++ (10 μM≥+++>5 μM) | − (0.25 μM≥−) | − (0.25 μM≥−) | − (0.25 μM≥−) | < 1 | – | 100 to 250
4 | NS(=O)(=O)c1ccc(Cc2c(-c3cccc(Cl)c3)nn(-c3nc(C(=O)O)cs3)c2CC2CC2)cc1F [Example 17, 2-(3-(3-chlorophenyl)-5-(cyclopropylmethyl)-4-(3-fluoro-4-sulfamoylbenzyl)-1H-pyrazol-1-yl)thiazole-4-carboxylic acid] | 1 to 10 | +++ (10 μM≥+++>5 μM) | − (0.25 μM≥−) | − (0.25 μM≥−) | − (0.25 μM≥−) | < 1 | < 100 | –
5 | NS(=O)(=O)c1ccc(Cc2c(-c3ccc(F)c(F)c3)nn(-c3nc(C(=O)O)cs3)c2CC2CC2)cc1F [Example 12, 2-(5-(Cyclopropylmethyl)-3-(3,4-difluorophenyl)-4-(3-fluoro-4-sulfamoylbenzyl)-1H-pyrazol-1-yl)thiazole-4-carboxylic acid] | 1 to 10 | +++ (10 μM≥+++>5 μM) | − (0.25 μM≥−) | − (0.25 μM≥−) | − (0.25 μM≥−) | < 1 | < 100 | –
6 | NS(=O)(=O)c1ccc(Cc2c(-c3cccc(F)c3)nn(-c3nc(C(=O)O)cs3)c2CC2CC2)cc1F [Example 14, 2-(5-(cyclopropylmethyl)-4-(3-fluoro-4-sulfamoylbenzyl)-3-(3-fluorophenyl)-1H-pyrazol-1-yl)thiazole-4-carboxylic acid] | 1 to 10 | ++++ (++++>10 μM) | + (1 μM≥+>0.25 μM) | − (0.25 μM≥−) | − (0.25 μM≥−) | < 1 | – | < 100
7 | NS(=O)(=O)c1ccc(Cc2c(-c3ccc(F)cc3)nn(-c3nc(C(=O)O)cs3)c2CC2CC2)cc1F [Example 1, 2-(5-(cyclopropylmethyl)-4-(3-fluoro-4-sulfamoylbenzyl)-3-(4-fluorophenyl)-1H-pyrazol-1-yl)thiazole-4-carboxylic acid] | 1 to 10 | ++++ (++++>10 μM) | + (1 μM≥+>0.25 μM) | − (0.25 μM≥−) | − (0.25 μM≥−) | < 1 | < 100 | –

The next lines start with results.

Row | IC50 [1] [nM] | Measured Compound Concentrations Liver - 4 h [2] | Measured Compound Concentrations Liver - 24 h [2] | Measured Compound Concentrations Plasma - 4 h [2] | Measured Compound Concentrations Plasma - 24 h [2] | IC50 [4] [nM] | Compound | IC50 ([3]; 0.1 M cells/well) [nM] | IC50 [3, 5] [nM]
8 | 1 to 10 | +++ (10 μM≥+++>5 μM) | − (0.25 μM≥−) | − (0.25 μM≥−) | − (0.25 μM≥−) | < 1 | NS(=O)(=O)c1ccc(Cc2c(-c3cccc(OC(F)(F)F)c3)nn(-c3nc(C(=O)O)cs3)c2CC2CC2)cc1F [Example 19, 2-(5-(cyclopropylmethyl)-4-(3-fluoro-4-sulfamoylbenzyl)-3-(3-(trifluoromethoxy)phenyl)-1H-pyrazol-1-yl)thiazole-4-carboxylic acid] | 100 to 250 | –
9 | 1 to 10 | +++ (10 μM≥+++>5 μM) | − (0.25 μM≥−) | − (0.25 μM≥−) | − (0.25 μM≥−) | < 1 | NS(=O)(=O)c1ccc(Cc2c(-c3cc(F)c(F)c(F)c3)nn(-c3nc(C(=O)O)cs3)c2CC2CC2)cc1F [Example 28, 2-(5-(Cyclopropylmethyl)-4-(3-fluoro-4-sulfamoylbenzyl)-3-(3,4,5-trifluorophenyl)-1H-pyrazol-1-yl)thiazole-4-carboxylic acid] | < 100 | –
10 | 10 to 100 | ++ (5 μM≥++>1 μM) | − (0.25 μM≥−) | − (0.25 μM≥−) | − (0.25 μM≥−) | < 1 | NS(=O)(=O)c1ccc(Cc2c(-c3ccc(C(F)F)cc3)nn(-c3nc(C(=O)O)cs3)c2CC2CC2)cc1F [Example 21, 2-(5-(cyclopropylmethyl)-3-(4-(difluoromethyl)phenyl)-4-(3-fluoro-4-sulfamoylbenzyl)-1H-pyrazol-1-yl)thiazole-4-carboxylic acid] | < 100 | –
11 | 10 to 100 | +++ (10 μM≥+++>5 μM) | − (0.25 μM≥−) | − (0.25 μM≥−) | − (0.25 μM≥−) | < 1 | NS(=O)(=O)c1ccc(Cc2c(-c3ccccc3F)nn(-c3nc(C(=O)O)cs3)c2CC2CC2)cc1F [Example 25] | 100 to 250 | –
12 | 10 to 100 | ++ (5 μM≥++>1 μM) | − (0.25 μM≥−) | − (0.25 μM≥−) | − (0.25 μM≥−) | < 1 | NS(=O)(=O)c1ccc(Cc2c(-c3cc(Cl)cc(Cl)c3)nn(-c3nc(C(=O)O)cs3)c2CC2CC2)cc1F [Example 26, 2-(5-(cyclopropylmethyl)-3-(3,5-dichlorophenyl)-4-(3-fluoro-4-sulfamoylbenzyl)-1H-pyrazol-1-yl)thiazole-4-carboxylic acid] | 100 to 250 | –
13 | 1 to 10 | ++ (5 μM≥++>1 μM) | − (0.25 μM≥−) | − (0.25 μM≥−) | − (0.25 μM≥−) | < 1 | NS(=O)(=O)c1ccc(Cc2c(-c3cccc(OCC(F)(F)F)c3)nn(-c3nc(C(=O)O)cs3)c2CC2CC2)cc1F [Example 22, 2-(5-(cyclopropylmethyl)-4-(3-fluoro-4-sulfamoylbenzyl)-3-(3-(2,2,2-trifluoroethoxy)phenyl)-1H-pyrazol-1-yl)thiazole-4-carboxylic acid] | < 100 | –
